Laboratory results as given in article PMC10518257 (Nature Cancer, 2023).
Values joined by “and” are separate entries in the source; they are usually repeats but may differ in a detail not shown here. Equal values may be shown once. Read-outs that look alike come from different tables or passages of the source.

Tests used:
[1] = system: Ba/F3 cells expressing KIF5B–RET^G810C; assay: Growth inhibition assay in Ba/F3 cells (CellTiter-Glo, 72 h); assay type: cell-based; conditions: Ba/3-KIF5B-RET-G810C; replicate Sets 1-3
Ba/F3-CCDC6::RET = assay: as above; assay type: cell-based
LUAD-0077AS1 PDX = assay: PDX efficacy study; assay type: in vivo, NSG mice; design: Tumor volume: unit not given here; conditions: for Area Under Curve Mean: Fig. 6b LUAD-0077AS1 tumor growth; for Change in tumor volume (block without heading, Fig. 6b) / Tumor volume: LUAD-0077AS1, individual animals
[2] = system: Ba/F3 cells expressing KIF5B–RET^G810R; assay: Growth inhibition assay in Ba/F3 cells (CellTiter-Glo, 72 h); assay type: cell-based; conditions: Ba/3-KIF5B-RET-G810R; replicate Sets 1-3
[3] = system: Ba/F3 KIF5B–RET^WT allograft tumors; assay: Subcutaneous allograft efficacy study; assay type: in vivo, BALB/c nude mice
LUAD-0086AS3 cells = assay: Growth inhibition (alamarBlue, 96 h); assay type: cell-based, human; conditions: for raw viability signal (Source Data Fig. 3b-c): LUAD-0086AS3 (n=1, 3 replicates)
[4] = system: LUAD-0002AS1 cells (KIF5B::RET); assay: Dose-response western blotting, EC50 for inhibition of protein phosphorylation; assay type: cell-based; conditions: Homo sapiens, LUAD-0002AS1, 2 h, densitometry
[5] = Animal weight of tumor-bearing mice

## COCc1ccc(NC(=O)c2c(C#CCN3CCOCC3)n(C3(C)CC3)c3ncnc(N)c23)cc1 [Vepafestinib, 4-amino-N-[4-(methoxymethyl)phenyl]-7-(1-methylcyclopropyl)-6-[3-(morpholin-4-yl)prop-1-yn-1-yl]-7H-pyrrolo[2,3-d]pyrimidine-5-carboxamide]
[1]
  GI50: 0.0145 µM
Ba/F3-CCDC6::RET; BaF3/CCDC6-RET, 72 h, read-out: GI50 value (Mean ± SD), Ba/F3-CCDC6::RET, CellTiter-Glo, 72 h
  GI50: 0.022 ± 0.0093 µM
Ba/F3-CCDC6::RET; read-out: GI50 values, Ba/F3-CCDC6::RET, individual sets (replicate experiments)
  GI50: 0.014 µM and 0.0322 µM and 0.0199 µM
LUAD-0077AS1 PDX; 50 mg/kg BID
  Area Under Curve Mean: 728.7
  Change in tumor volume (block without heading, Fig. 6b): 60.867 and 57.9883 and 49.0287 and 27.5983 and 23.1229
LUAD-0077AS1 PDX; 100 mg/kg QD
  Area Under Curve Mean: 549
  Change in tumor volume (block without heading, Fig. 6b): 67.7861 and 60.2113 and 54.3275 and 44.2105 and 25.5424
LUAD-0077AS1 PDX; 50 mg/kg BID, treatment day 0
  Tumor volume: 82.36 (2×) and 88.7 and 83.97 and 85.5
LUAD-0077AS1 PDX; 50 mg/kg BID, treatment day 4
  Tumor volume: 85.5 (3×) and 82.36 and 83.97
LUAD-0077AS1 PDX; 50 mg/kg BID, treatment day 7
  Tumor volume: 80.89 (2×) and 82.36 (2×) and 85.5
LUAD-0077AS1 PDX; 50 mg/kg BID, treatment day 11
  Tumor volume: 80.89 (3×) and 74.9 and 77.87
LUAD-0077AS1 PDX; 50 mg/kg BID, treatment day 14
  Tumor volume: 95.03 and 87.03 and 102.07 (3×)
LUAD-0077AS1 PDX; 50 mg/kg BID, treatment day 19
  Tumor volume: 105.09 and 109.21 and 122.74 and 135.08 (2×)
LUAD-0077AS1 PDX; 50 mg/kg BID, treatment day 22
  Tumor volume: 186.96 and 181.98 and 192.42 and 159.66 and 197.96
LUAD-0077AS1 PDX; 50 mg/kg BID, treatment day 25
  Tumor volume: 232.25 (2×) and 250.35 (2×) and 247.99
LUAD-0077AS1 PDX; 100 mg/kg QD, treatment day 0
  Tumor volume: 82.36 and 83.97 and 87.11 and 85.5 (2×)
LUAD-0077AS1 PDX; 100 mg/kg QD, treatment day 4
  Tumor volume: 85.5 (2×) and 83.97 (2×) and 88.7
LUAD-0077AS1 PDX; 100 mg/kg QD, treatment day 7
  Tumor volume: 82.36 and 72.18 and 79.42 and 77.87 and 79.29
LUAD-0077AS1 PDX; 100 mg/kg QD, treatment day 11
  Tumor volume: 79.29 (2×) and 65.37 and 72.18 and 77.87
LUAD-0077AS1 PDX; 100 mg/kg QD, treatment day 14
  Tumor volume: 114.83 and 111.18 and 83.83 (3×)
LUAD-0077AS1 PDX; 100 mg/kg QD, treatment day 19
  Tumor volume: 131.95 (2×) and 140.89 and 109.36 and 123.3
LUAD-0077AS1 PDX; 100 mg/kg QD, treatment day 22
  Tumor volume: 136.38 and 156.56 and 135.08 and 138.33 and 147.55
LUAD-0077AS1 PDX; 100 mg/kg QD, treatment day 25
  Tumor volume: 213.8 and 205.8 and 189.86 and 177.9 and 205.88
[2]
  GI50: 0.0242 µM and 0.0467 µM
[3]; Ba/F3-KIF5B::RET, 50 mg/kg BID, Day 1, Ext. Data Fig. 9a
  Tumor Volume Mean: 153.20 mm3
[3]; Ba/F3-KIF5B::RET, 50 mg/kg BID, Day 1, Ext. Data Fig. 9b
  Tumor Volume Mean: 219.73 mm3
[3]; Ba/F3-KIF5B::RET, 50 mg/kg BID, Day 4, Ext. Data Fig. 9a
  Tumor Volume Mean: 87.32 mm3
[3]; Ba/F3-KIF5B::RET, 50 mg/kg BID, Day 4, Ext. Data Fig. 9b
  Tumor Volume Mean: 116.10 mm3
[3]; Ba/F3-KIF5B::RET, 50 mg/kg BID, Day 8, Ext. Data Fig. 9a
  Tumor Volume Mean: 98.53 mm3
[3]; Ba/F3-KIF5B::RET, 50 mg/kg BID, Day 8, Ext. Data Fig. 9b
  Tumor Volume Mean: 190.23 mm3
[3]; Ba/F3-KIF5B::RET, 50 mg/kg BID, Day 11, Ext. Data Fig. 9a
  Tumor Volume Mean: 80.59 mm3
[3]; Ba/F3-KIF5B::RET, 50 mg/kg BID, Day 11, Ext. Data Fig. 9b
  Tumor Volume Mean: 68.61 mm3
[3]; Ba/F3-KIF5B::RET, 50 mg/kg BID, Day 15, Ext. Data Fig. 9a
  Tumor Volume Mean: 80.54 mm3
[3]; Ba/F3-KIF5B::RET, 50 mg/kg BID, Day 15, Ext. Data Fig. 9b
  Tumor Volume Mean: 131.30 mm3
[3]; Fig. 7a Ba/F3-KIF5B::RET, 25 mg/kg BID, day 0, in mm³ (unit assumed)
  Tumor Volume Mean: 186.18
[3]; Fig. 7a Ba/F3-KIF5B::RET, 25 mg/kg BID, day 4, in mm³ (unit assumed)
  Tumor Volume Mean: 191.92
[3]; Fig. 7a Ba/F3-KIF5B::RET, 25 mg/kg BID, day 8, in mm³ (unit assumed)
  Tumor Volume Mean: 184.92
[3]; Fig. 7a Ba/F3-KIF5B::RET, 25 mg/kg BID, day 11, in mm³ (unit assumed)
  Tumor Volume Mean: 174.38
[3]; Fig. 7a Ba/F3-KIF5B::RET, 25 mg/kg BID, day 15, in mm³ (unit assumed)
  Tumor Volume Mean: 165.09
[3]; Fig. 7a Ba/F3-KIF5B::RET, 50 mg/kg BID, day 0, in mm³ (unit assumed)
  Tumor Volume Mean: 187.80
[3]; Fig. 7a Ba/F3-KIF5B::RET, 50 mg/kg BID, day 4, in mm³ (unit assumed)
  Tumor Volume Mean: 184.99
[3]; Fig. 7a Ba/F3-KIF5B::RET, 50 mg/kg BID, day 8, in mm³ (unit assumed)
  Tumor Volume Mean: 148.12
[3]; Fig. 7a Ba/F3-KIF5B::RET, 50 mg/kg BID, day 11, in mm³ (unit assumed)
  Tumor Volume Mean: 106.67
[3]; Fig. 7a Ba/F3-KIF5B::RET, 50 mg/kg BID, day 15, in mm³ (unit assumed)
  Tumor Volume Mean: 83.29
LUAD-0086AS3 cells; Homo sapiens, 96 h, read-out: IC50 for Inhibition of Growth (95% CI)
  IC50: 0.116 µM
LUAD-0086AS3 cells; 0.01 nM
  raw viability signal (Source Data Fig. 3b-c): 16237.2 and 19485.2 and 18210.6
LUAD-0086AS3 cells; 0.1 nM
  raw viability signal (Source Data Fig. 3b-c): 16457.6 and 20449.8 and 20222
LUAD-0086AS3 cells; 1 nM
  raw viability signal (Source Data Fig. 3b-c): 16743.2 and 19056.2 and 19367.3
LUAD-0086AS3 cells; 10 nM
  raw viability signal (Source Data Fig. 3b-c): 12680.1 and 18071 and 16933
LUAD-0086AS3 cells; 100 nM
  raw viability signal (Source Data Fig. 3b-c): 5830.14 and 9884.36 and 9286.4
LUAD-0086AS3 cells; 1000 nM
  raw viability signal (Source Data Fig. 3b-c): 6803.13 and 8603.1 and 8594.97
LUAD-0086AS3 cells; 10000 nM
  raw viability signal (Source Data Fig. 3b-c): 3602.32 and 4605.44 and 4993.57
[4]; read-out: EC50 for Inhibition of Protein Phosphorylation (95% CI), AKT S473
  EC50: 0.0014 µM
[4]; read-out: EC50 for Inhibition of Protein Phosphorylation (95% CI), ERK1/2 T202/Y204
  EC50: 0.0009 µM
[4]; read-out: EC50 for Inhibition of Protein Phosphorylation (95% CI), MEK1/2 S217/S221
  EC50: 0.0015 µM
[4]; read-out: EC50 for Inhibition of Protein Phosphorylation (95% CI), P70 RSK T421/S424
  EC50: 0.0049 µM
[4]; read-out: EC50 for Inhibition of Protein Phosphorylation (95% CI), RET Y905
  EC50: 0.0013 µM
[4]; read-out: EC50 for Inhibition of Protein Phosphorylation (95% CI), S6RP S235/S236
  EC50: 0.015 µM
[5]; Ba/F3-KIF5B::RET (Fig 8e), 25 mg/kg BID, day 0
  Animal Weight, Mean: 25.1 g
[5]; Ba/F3-KIF5B::RET (Fig 8e), 25 mg/kg BID, day 4
  Animal Weight, Mean: 27.6 g
[5]; Ba/F3-KIF5B::RET (Fig 8e), 25 mg/kg BID, day 8
  Animal Weight, Mean: 27.2 g
[5]; Ba/F3-KIF5B::RET (Fig 8e), 25 mg/kg BID, day 11
  Animal Weight, Mean: 27.1 g
[5]; Ba/F3-KIF5B::RET (Fig 8e), 25 mg/kg BID, day 15
  Animal Weight, Mean: 27.6 g
[5]; Ba/F3-KIF5B::RET (Fig 8e), 50 mg/kg BID, day 0
  Animal Weight, Mean: 25.4 g
[5]; Ba/F3-KIF5B::RET (Fig 8e), 50 mg/kg BID, day 4
  Animal Weight, Mean: 27.8 g
[5]; Ba/F3-KIF5B::RET (Fig 8e), 50 mg/kg BID, day 8
  Animal Weight, Mean: 26.3 g
[5]; Ba/F3-KIF5B::RET (Fig 8e), 50 mg/kg BID, day 11
  Animal Weight, Mean: 25.3 g
[5]; Ba/F3-KIF5B::RET (Fig 8e), 50 mg/kg BID, day 15
  Animal Weight, Mean: 25.9 g
[5]; Ba/F3-KIF5B::RET G810R (Fig 8f), Vepafestinib 10 mg/kg BID, day 1
  Animal Weight, Mean: 25.86 g
[5]; Ba/F3-KIF5B::RET G810R (Fig 8f), Vepafestinib 10 mg/kg BID, day 4
  Animal Weight, Mean: 25.30 g
